Read-outs that look alike come from different tables or passages of the source.
Columns and labels:
[1] = system: Calu1; assay: Cell growth inhibition assay (Cell Titer Glo, 3 days); assay type: cell-based, Human; details: Calu1 (KRAS_G12C), single agent, mean ± std
Procedure: (§1) Human tumor cell lines from lung cancer, A427, A549, Calu1, Calu3, Calu6, COR-L23, HOP62, MV522, NCI-H1155, NCI-H1299, NCI-H1355, NCI-H1395, NCI-H157, NCI-H1573, NCI-H1666, NCI-1755, NCI-H1792, NCI-2009, NCI-H2030, NCI-H2122, NCI-H2291, NCI-H23, NCI-H2347, NCI-H358, NCI-H441, NCI-H460, NCI-H650, NCI-H727, SW1573 and SW900 were cultured in RPMI 1640 medium containing 10% fetal bovine serum (FBS). Cell line mutation data was collated for the status for the RAS and RAF genes. The data source is the cancer cell line mutation screening data published as part of the Catalog of Somatic Mutations in Cancer database (COSMIC) (Bamford S. et al. Br. J. Cancer. 2004. 91:355-58) and/or in house DNA sequencing.
(§2) Cells were seeded in a 96-well tissue culture plate (NUNC 136102) of RPMI medium containing 10% FBS at 500-2,000 cells per well. Approximately 24 hours after plating, cells were exposed to ten, two-fold or three-fold serial dilutions of either Compound A or B or the combination of the two agents at a 10:1 molar ratio (Compounds A and B respectively). The final dosing concentration range for Compound A was 2-1000 nM and was 0.2-100 nM for Compound B. Cells were incubated in the presence of compounds for 3 days. ATP levels were determined by adding Cell Titer Glo® (Promega) according to the manufacturer's protocol. Briefly, Cell Titer Glo® was added to each plate, incubated for 20 minutes then luminescent signal was read on the SpectraMax L plate reader with a 0.5 sec integration time. All assays were run at least in duplicate.
(§3) Inhibition of cell growth was estimated after treatment with compound or combination of compounds for three days and comparing the signal to cells treated with vehicle (DMSO). Cell growth was calculated relative to vehicle (DMSO) treated control wells. Concentration of compound that inhibits 50% of control cell growth (IC50) was back-interpolated when y=50% of DMSO treated control wells using nonlinear regression with the equation: […]

[2] = system: HOP62; assay: as above; assay type: cell-based, Human; details: HOP62 (KRAS_G12C), single agent, mean ± std
Procedure: as §1, §2, §3

[3] = system: NCI-H1395; assay: as above; assay type: cell-based, Human; details: NCI-H1395 (BRAF_G469A), single agent, mean ± std
Procedure: as §1, §2, §3

[4] = system: NCI-H1755; assay: as above; assay type: cell-based, Human; details: NCI-H1755 (BRAF_G469A), single agent, mean ± std
Procedure: as §1, §2, §3

[5] = system: NCI-H2291; assay: as above; assay type: cell-based, Human; details: NCI-H2291 (KRAS_G12F), single agent, mean ± std
Procedure: as §1, §2, §3

[6] = system: NCI-H23; assay: as above; assay type: cell-based, Human; details: NCI-H23 (KRAS_G12C), single agent, mean ± std
Procedure: as §1, §2, §3

[7] = system: NCI-H358; assay: as above; assay type: cell-based, Human; details: NCI-H358 (KRAS_G12C), single agent, mean ± std
Procedure: as §1, §2, §3

[8] = system: SW1573; assay: as above; assay type: cell-based, Human; details: SW1573 (KRAS_G12C), single agent, mean ± std
Procedure: as §1, §2, §3

[9] = system: SW900; assay: as above; assay type: cell-based, Human; details: SW900 (KRAS_G12V), single agent, mean ± std
Procedure: as §1, §2, §3

[10] = system: panel of 29 human lung tumor cell lines; assay: Cell growth inhibition, summary over the panel; assay type: cell-based; details: out of 29 lines; single agent
Procedure: as §1
Cells were seeded in a 96-well tissue culture plate (NUNC 136102) of RPMI medium containing 10% FBS at 500-2,000 cells per well. […] ATP levels were determined by adding Cell Titer Glo® (Promega) according to the manufacturer's protocol. Briefly, Cell Titer Glo® was added to each plate, incubated for 20 minutes then luminescent signal was read on the SpectraMax L plate reader with a 0.5 sec integration time. […]
Inhibition of cell growth was estimated after treatment with compound or combination of compounds for three days and comparing the signal to cells treated with vehicle (DMSO). Cell growth was calculated relative to vehicle (DMSO) treated control wells. […]

[11] = system: 95 cancer cell lines
Procedure: (Compound A) or mTOR inhibitor (mTORi, Rapamycin) alone or a combination of both agents at a ratio of 1:2 (MEKi:mTORi) and cell proliferation/death was measured after 3 day drug exposure. Briefly, cells were plated in 384-well plates at 500 cells/well in culture media appropriate for each cell type, supplemented with 10% FBS and 1% penicillin/streptomycin, and incubated overnight at 37° C., 5% CO2. […] (two fold dilutions ranging from 7.3 uM-0.014 nM) or with mTOR inhibitor (two fold dilutions ranging from 14.6 uM-0.112 nM) or in combination with both compounds and incubated for 72 hours. Cell growth was measured using the CellTiterGlo (CTG) reagent (Promega) according to the manufacturer's protocol. Data were analyzed using the XLfit (IDBS Ltd.) curve-fitting tool for Microsoft Excel. Growth IC50 (gIC50) and Ymin values were generated using a four-parameter curve fit algorithm (XLFit algorithm #205).
Results were expressed as a percent of the t=0 and plotted against the compound concentration. The T=0 value is normalized to 100% and represents the number of cells at the time of compound addition. […] Formula below was used to calculate mutually exclusive combination index (CI). Data were reported as log CI, where the logarithm value of CI was calculated.
CI=IC50 of a+b/IC50 of a+IC50 of b+a/IC50 of b
Synergy is defined as CI<1, additivity as CI=1 and antagonism as CI>1. Considering the variability of these proliferation assays we arbitrarily defined log CI>0.1 as antagonism, between −0.1 and 0.1 as no significant effect and <−0.1 as synergy.

[12] = read-out: IC50 Single Agent Compound A
[13] = Homo sapiens, 72 h, read-out: IC50 Single Agent Compound B

Compound: N-{3-[3-cyclopropyl-5-(2-fluoro-4-iodo-phenylamino)6,8-dimethyl;-2,4,7-trioxo-3,4,6,7-tetrahydro-2H-pyrido[4,3-d]pyrimidin-1-yl]phenyl}acetamide [Compound A]
- IC50 [1, 12]: > 1000 nM
- IC50 [2, 12]: > 1000 nM
- IC50 [3, 12]: > 1000 nM
- IC50 [4, 12]: 45 ± 6 nM
- IC50 [5, 12]: 4 nM
- IC50 [6, 12]: 31 ± 2 nM
- IC50 [7, 12]: 31 ± 10 nM
- IC50 [8, 12]: > 1000 nM
- IC50 [9, 12]: 141 ± 2 nM
- number of lines sensitive (IC50s<100 nM) [10]: 17
- percentage of cell undergoing death (cytotoxic) [11]: 20%
- cell lines undergoing death ([11]; independent of the KRAS status): > 20%

Compound: CO[C@H]1C[C@@H]2CC[C@@H](C)[C@@](O)(O2)C(=O)C(=O)N2CCCC[C@H]2C(=O)O[C@H]([C@H](C)C[C@@H]2CC[C@@H](OCCO)[C@H](OC)C2)CC(=O)[C@H](C)/C=C(\C)[C@@H](O)[C@@H](OC)C(=O)[C@H](C)C[C@H](C)/C=C/C=C/C=C/1C [Compound B, everolimus]
- IC50 ([1]; Homo sapiens, Calu-1, 72 h, read-out: IC50 Single Agent Compound B): > 100 nM
- IC50 ([2]; Homo sapiens, HOP-62, 72 h, read-out: IC50 Single Agent Compound B): > 100 nM
- IC50 [3, 13]: > 100 nM
- IC50 [4, 13]: > 100 nM
- IC50 [5, 13]: > 100 nM
- IC50 [6, 13]: > 100 nM
- IC50 [7, 13]: > 100 nM
- IC50 [8, 13]: > 100 nM
- IC50 [9, 13]: > 100 nM
- number of lines sensitive (IC50s<100 nM) [10]: 2

Source: patent US20170065593A1, “Combination” (Novartis AG, priority 2009, published 2017)
